Laboratory results: ChEMBL document CHEMBL3751688, “Synthesis, in vitro antimycobacterial evaluation and docking studies of some new 5,6,7,8-tetrahydropyrido[4',3':4,5]thieno[2,3-d]pyrimidin-4(3H)-one schiff bases” (Bioorg Med Chem Lett, 2016)
≈ marks a conversion by molar mass, not a printed value.

Key:
[1] = test system: Mycobacterium tuberculosis; experiment: Antibacterial activity against Mycobacterium tuberculosis; assay type: functional
Staphylococcus aureus = experiment: Antibacterial activity against Staphylococcus aureus MTCC 96 after 24 hrs by broth microdilution technique; assay type: functional; conditions: MTCC 96, 24 h
Bacillus subtilis = experiment: Antibacterial activity against Bacillus subtilis MTCC 441 after 24 hrs by broth microdilution technique; assay type: functional; conditions: MTCC 441, 24 h
Escherichia coli = experiment: Antibacterial activity against Escherichia coli MTCC 443 after 24 hrs by broth microdilution technique; assay type: functional; conditions: MTCC 443, 24 h
Klebsiella pneumoniae = experiment: Antibacterial activity against Klebsiella pneumoniae MTCC 109 after 24 hrs by broth microdilution technique; assay type: functional; conditions: MTCC 109, 24 h
[2] = test system: Mycobacterium tuberculosis; experiment: Antimycobacterial activity against Mycobacterium tuberculosis H37Rv at 113 uM after 3 days by luciferase reporter phage assay; assay type: functional; conditions: 72 h
[3] = test system: Mycobacterium tuberculosis; experiment: Antimycobacterial activity against Mycobacterium tuberculosis H37Rv at 224 uM after 3 days by luciferase reporter phage assay; assay type: functional; conditions: 72 h
[4] = test system: Mycobacterium tuberculosis; experiment: Antimycobacterial activity against Mycobacterium tuberculosis H37Rv at 455 uM after 3 days by luciferase reporter phage assay; assay type: functional; conditions: 72 h
[5] = test system: Mycobacterium tuberculosis; experiment: Antimycobacterial activity against Mycobacterium tuberculosis H37Rv after 14 days by broth microdilution method; assay type: functional; conditions: 336 h
[6] = test system: Mycobacterium tuberculosis; experiment: Antimycobacterial activity against Mycobacterium tuberculosis H37Rv after 21 days by broth microdilution method; assay type: functional; conditions: 504 h
Pantothenate synthetase = molecular target: T1, Pantothenate synthetase (Mycobacterium tuberculosis, UniProt P9WIL5); experiment: Inhibition of Mycobacterium tuberculosis pantothenate synthetase
T1 sequence (P9WIL5 whole entry): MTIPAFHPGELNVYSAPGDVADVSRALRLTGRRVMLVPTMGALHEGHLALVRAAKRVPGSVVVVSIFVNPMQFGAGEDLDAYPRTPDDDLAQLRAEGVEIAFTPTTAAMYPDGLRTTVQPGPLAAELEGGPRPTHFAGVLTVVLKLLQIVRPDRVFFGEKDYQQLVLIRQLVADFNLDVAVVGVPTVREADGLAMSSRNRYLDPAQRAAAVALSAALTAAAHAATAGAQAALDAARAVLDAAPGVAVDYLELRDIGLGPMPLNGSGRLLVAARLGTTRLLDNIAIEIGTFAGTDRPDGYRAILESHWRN

[7] = test system: Mycobacterium tuberculosis; experiment: Antimycobacterial activity against Mycobacterium tuberculosis H37Rv at 117 uM after 3 days by luciferase reporter phage assay; assay type: functional; conditions: 72 h
[8] = test system: Mycobacterium tuberculosis; experiment: Antimycobacterial activity against Mycobacterium tuberculosis H37Rv at 235 uM after 3 days by luciferase reporter phage assay; assay type: functional; conditions: 72 h
[9] = test system: Mycobacterium tuberculosis; experiment: Antimycobacterial activity against Mycobacterium tuberculosis H37Rv at 470 uM after 3 days by luciferase reporter phage assay; assay type: functional; conditions: 72 h
[10] = test system: Mycobacterium tuberculosis; experiment: Antimycobacterial activity against Mycobacterium tuberculosis H37Rv at 111 uM after 3 days by luciferase reporter phage assay; assay type: functional; conditions: 72 h
[11] = test system: Mycobacterium tuberculosis; experiment: Antimycobacterial activity against Mycobacterium tuberculosis H37Rv at 223 uM after 3 days by luciferase reporter phage assay; assay type: functional; conditions: 72 h
[12] = test system: Mycobacterium tuberculosis; experiment: Antimycobacterial activity against Mycobacterium tuberculosis H37Rv at 446 uM after 3 days by luciferase reporter phage assay; assay type: functional; conditions: 72 h
[13] = test system: Mycobacterium tuberculosis; experiment: Antimycobacterial activity against Mycobacterium tuberculosis H37Rv at 116 uM after 3 days by luciferase reporter phage assay; assay type: functional; conditions: 72 h
[14] = test system: Mycobacterium tuberculosis; experiment: Antimycobacterial activity against Mycobacterium tuberculosis H37Rv at 232 uM after 3 days by luciferase reporter phage assay; assay type: functional; conditions: 72 h
[15] = test system: Mycobacterium tuberculosis; experiment: Antimycobacterial activity against Mycobacterium tuberculosis H37Rv at 465 uM after 3 days by luciferase reporter phage assay; assay type: functional; conditions: 72 h
[16] = test system: Mycobacterium tuberculosis; experiment: Antimycobacterial activity against Mycobacterium tuberculosis H37Rv at 123 uM after 3 days by luciferase reporter phage assay; assay type: functional; conditions: 72 h
[17] = test system: Mycobacterium tuberculosis; experiment: Antimycobacterial activity against Mycobacterium tuberculosis H37Rv at 246 uM after 3 days by luciferase reporter phage assay; assay type: functional; conditions: 72 h
[18] = test system: Mycobacterium tuberculosis; experiment: Antimycobacterial activity against Mycobacterium tuberculosis H37Rv at 492 uM after 3 days by luciferase reporter phage assay; assay type: functional; conditions: 72 h

Structure (SMILES)	MIC (Staphylococcus aureus) [µM]	MIC (Bacillus subtilis) [µM]	MIC (Escherichia coli) [µM]	MIC (Klebsiella pneumoniae) [µM]	MIC [5] [µM]	MIC [6] [µM]	also measured
Cc1nc2ccccn2c1C(=O)N/N=C/c1ccc(C(F)(F)F)cc1	–	–	–	–	–	–	MIC [1]: 9.01 µM (≈ 3.12 µg/mL)
Cc1nc2sc3c(c2c(=O)n1/N=C/c1ccc(C#N)cc1)CCN(Cc1ccccc1)C3	34 (≈ 14.9 µg/mL)	34 (≈ 14.9 µg/mL)	15 (≈ 6.59 µg/mL)	70 (≈ 30.8 µg/mL)	20 (≈ 8.79 µg/mL)	20 (≈ 8.79 µg/mL)	inhibition at 113 µM [2]: 0%; inhibition at 224 µM [3]: 6.5%; inhibition at 455 µM [4]: 9.8%
Cc1nc2sc3c(c2c(=O)n1/N=C/c1ccccc1)CCN(Cc1ccccc1)C3	74 (≈ 30.7 µg/mL)	74 (≈ 30.7 µg/mL)	74 (≈ 30.7 µg/mL)	149 (≈ 61.8 µg/mL)	–	–	–
O=c1c2c3c(sc2ncn1/N=C/c1ccccc1[N+](=O)[O-])CN(Cc1ccccc1)CC3	139 (≈ 61.9 µg/mL)	139 (≈ 61.9 µg/mL)	139 (≈ 61.9 µg/mL)	139 (≈ 61.9 µg/mL)	–	–	–
NC(=O)c1c(NC(=O)c2ccc([N+](=O)[O-])s2)sc2c1CCN(Cc1ccccc1)C2	–	–	–	–	–	–	IC50 (Pantothenate synthetase): 1.13 µM
Cc1nc2sc3c(c2c(=O)n1/N=C/c1cccs1)CCN(Cc1ccccc1)C3	297 (≈ 125 µg/mL)	297 (≈ 125 µg/mL)	297 (≈ 125 µg/mL)	297 (≈ 125 µg/mL)	–	–	–
O=c1c2c3c(sc2ncn1/N=C/c1ccc(O)cc1)CN(Cc1ccccc1)CC3	149 (≈ 62.1 µg/mL)	149 (≈ 62.1 µg/mL)	149 (≈ 62.1 µg/mL)	149 (≈ 62.1 µg/mL)	–	–	–
O=c1c2c3c(sc2ncn1/N=C/c1ccc(F)cc1)CN(Cc1ccccc1)CC3	73 (≈ 30.6 µg/mL)	73 (≈ 30.6 µg/mL)	73 (≈ 30.6 µg/mL)	147 (≈ 61.5 µg/mL)	–	–	–
Cc1nc2sc3c(c2c(=O)n1/N=C/c1ccccc1[N+](=O)[O-])CCN(Cc1ccccc1)C3	135 (≈ 62 µg/mL)	135 (≈ 62 µg/mL)	135 (≈ 62 µg/mL)	135 (≈ 62 µg/mL)	–	–	–
N#Cc1ccc(/C=N/n2cnc3sc4c(c3c2=O)CCN(Cc2ccccc2)C4)cc1	35 (≈ 14.9 µg/mL)	35 (≈ 14.9 µg/mL)	16 (≈ 6.81 µg/mL)	72 (≈ 30.6 µg/mL)	9 (≈ 3.83 µg/mL)	9 (≈ 3.83 µg/mL)	inhibition at 117 µM [7]: 0%; inhibition at 235 µM [8]: 9.7%; inhibition at 470 µM [9]: 69.9%
O=c1c2c3c(sc2ncn1/N=C/c1ccc(Cl)cc1)CN(Cc1ccccc1)CC3	34 (≈ 14.8 µg/mL)	34 (≈ 14.8 µg/mL)	16 (≈ 6.96 µg/mL)	71 (≈ 30.9 µg/mL)	20 (≈ 8.7 µg/mL)	20 (≈ 8.7 µg/mL)	–
COc1cc(/C=N/n2c(C)nc3sc4c(c3c2=O)CCN(Cc2ccccc2)C4)cc(OC)c1OC	248 (≈ 125 µg/mL)	248 (≈ 125 µg/mL)	248 (≈ 125 µg/mL)	248 (≈ 125 µg/mL)	–	–	–
COc1ccc(/C=N/n2c(C)nc3sc4c(c3c2=O)CCN(Cc2ccccc2)C4)cc1	69 (≈ 30.7 µg/mL)	33 (≈ 14.7 µg/mL)	33 (≈ 14.7 µg/mL)	69 (≈ 30.7 µg/mL)	–	–	–
O=c1c2c3c(sc2ncn1/N=C/c1ccccc1)CN(Cc1ccccc1)CC3	77 (≈ 30.8 µg/mL)	77 (≈ 30.8 µg/mL)	77 (≈ 30.8 µg/mL)	155 (≈ 62.1 µg/mL)	–	–	–
Cc1nc2sc3c(c2c(=O)n1/N=C/c1ccc(O)cc1)CCN(Cc1ccccc1)C3	144 (≈ 62 µg/mL)	144 (≈ 62 µg/mL)	144 (≈ 62 µg/mL)	144 (≈ 62 µg/mL)	–	–	–
Cc1nc2sc3c(c2c(=O)n1/N=C/c1ccc(Cl)cc1)CCN(Cc1ccccc1)C3	33 (≈ 14.8 µg/mL)	33 (≈ 14.8 µg/mL)	15 (≈ 6.73 µg/mL)	69 (≈ 31 µg/mL)	8 (≈ 3.59 µg/mL)	8 (≈ 3.59 µg/mL)	inhibition at 111 µM [10]: 29.6%; inhibition at 223 µM [11]: 40.8%; inhibition at 446 µM [12]: 99.8%
COc1ccc(/C=N/n2cnc3sc4c(c3c2=O)CCN(Cc2ccccc2)C4)cc1	34 (≈ 14.6 µg/mL)	34 (≈ 14.6 µg/mL)	16 (≈ 6.89 µg/mL)	72 (≈ 31 µg/mL)	20 (≈ 8.61 µg/mL)	20 (≈ 8.61 µg/mL)	inhibition at 116 µM [13]: 0%; inhibition at 232 µM [14]: 15%; inhibition at 465 µM [15]: 16.9%
Cc1nc2sc3c(c2c(=O)n1/N=C/c1ccc(F)cc1)CCN(Cc1ccccc1)C3	71 (≈ 30.7 µg/mL)	71 (≈ 30.7 µg/mL)	71 (≈ 30.7 µg/mL)	71 (≈ 30.7 µg/mL)	–	–	–
Cc1nc2sc3c(c2c(=O)n1/N=C/c1ccc(Cl)cc1Cl)CCN(Cc1ccccc1)C3	64 (≈ 30.9 µg/mL)	15 (≈ 7.25 µg/mL)	64 (≈ 30.9 µg/mL)	64 (≈ 30.9 µg/mL)	–	–	–
O=c1c2c3c(sc2ncn1/N=C/c1ccc(Cl)cc1Cl)CN(Cc1ccccc1)CC3	66 (≈ 31 µg/mL)	32 (≈ 15 µg/mL)	66 (≈ 31 µg/mL)	66 (≈ 31 µg/mL)	–	–	–
Cc1nc2sc3c(c2c(=O)n1/N=C/c1ccco1)CCN(Cc1ccccc1)C3	309 (≈ 125 µg/mL)	309 (≈ 125 µg/mL)	309 (≈ 125 µg/mL)	153 (≈ 61.9 µg/mL)	–	–	–
O=c1c2c3c(sc2ncn1/N=C/c1cccs1)CN(Cc1ccccc1)CC3	36 (≈ 14.6 µg/mL)	150 (≈ 61 µg/mL)	150 (≈ 61 µg/mL)	150 (≈ 61 µg/mL)	22 (≈ 8.94 µg/mL)	22 (≈ 8.94 µg/mL)	inhibition at 123 µM [16]: 0%; inhibition at 246 µM [17]: 0%; inhibition at 492 µM [18]: 0%
COc1cc(/C=N/n2cnc3sc4c(c3c2=O)CCN(Cc2ccccc2)C4)cc(OC)c1OC	255 (≈ 125 µg/mL)	255 (≈ 125 µg/mL)	255 (≈ 125 µg/mL)	255 (≈ 125 µg/mL)	–	–	–
O=c1c2c3c(sc2ncn1/N=C/c1ccco1)CN(Cc1ccccc1)CC3	158 (≈ 61.7 µg/mL)	158 (≈ 61.7 µg/mL)	158 (≈ 61.7 µg/mL)	158 (≈ 61.7 µg/mL)	–	–	–
CC[C@@H](CO)NCCN[C@@H](CC)CO [ETHAMBUTOL]	–	–	–	–	4 (≈ 0.817 µg/mL)	4 (≈ 0.817 µg/mL)	–
NNC(=O)c1ccncc1 [ISONIAZID]	–	–	–	–	0.28 (≈ 0.0384 µg/mL)	0.28 (≈ 0.0384 µg/mL)	–
CO[C@H]1/C=C/O[C@@]2(C)Oc3c(C)c(O)c4c(O)c(c(/C=N/N5CCN(C)CC5)c(O)c4c3C2=O)NC(=O)/C(C)=C\C=C\[C@H](C)[C@H](O)[C@@H](C)[C@@H](O)[C@@H](C)[C@H](OC(C)=O)[C@@H]1C [RIFAMPIN]	–	–	–	–	0.09 (≈ 0.0741 µg/mL)	0.09 (≈ 0.0741 µg/mL)	–
CN[C@@H]1[C@H](O[C@H]2[C@H](O[C@H]3[C@H](O)[C@@H](O)[C@H](N=C(N)N)[C@@H](O)[C@@H]3N=C(N)N)O[C@@H](C)[C@]2(O)C=O)O[C@@H](CO)[C@H](O)[C@H]1O [STREPTOMYCIN]	< 1	< 1	< 1	< 1	2 (≈ 1.16 µg/mL)	2 (≈ 1.16 µg/mL)	–
